Experimental data published in publication PMC8351955, “Targeting Mycobacterium tuberculosis response to environmental cues for the development of effective antitubercular drugs” (PLoS Biology, 2021).
Like-named read-outs stand apart in the source and are kept apart here.

Key:
[1] = test system: CDC1551(rv2390c′::GFP) reporter Mtb strain, response to high [Cl−]; assay: microbe, parasite or virus in culture; format: cell-based, Mycobacterium tuberculosis; settings: Mycobacterium tuberculosis, 144 h; for activity at 20 µM: read-out: rv2390c'::GFP validation assay NPA% at 20 µM compound
[2] = test system: CDC1551(rv1405c′::GFP) reporter Mtb strain; assay: microbe, parasite or virus in culture; format: cell-based, Mycobacterium tuberculosis; settings: Mycobacterium tuberculosis; for activity at 10 µM: read-out: rv1405c'::GFP secondary assay NPA% at 10 µM compound; for activity at 20 µM: read-out: rv1405c'::GFP secondary assay NPA% at 20 µM compound
[3] = pH 6.4, […], DMSO positive control = 100%, read-out: Primary screen rv2390c'::GFP NPA%
[4] = 10 µM, pH 6.4, 250 mM NaCl, 6 days, read-out: rv2390c'::GFP validation assay NPA% at 10 µM compound

Row | Structure (SMILES) | activity at 10 µM [1, 3] | activity at 10 µM [1, 4] | activity at 20 µM ([1]; pH 6.4, 250 mM NaCl, 6 days) | activity at 10 µM [2] | activity at 20 µM [2]
1 | CCOC(=O)Cc1cc(=O)n2nc(C(F)(F)F)c(-c3ccccc3)c2[nH]1 [RU-0171667, CCOC(=O)CC1=CC(=O)N2N=C(C(=C2N1)C1=CC=CC=C1)C(F)(F)F] | 163% | 148 ± 28.3% | 178 ± 17.6% | 84.5 ± 11.2% | 94.8 ± 4%
2 | CCc1nc(C(=O)Nc2nc(C#N)c(C#N)[nH]2)nn1-c1ccccc1Cl [RU-0208082, CCC1=NC(=NN1C1=C(Cl)C=CC=C1)C(=O)NC1=NC(C#N)=C(N1)C#N] | 309% | 258 ± 15.1% | 380 ± 38.2% | 418 ± 56.2% | 677 ± 106%
3 | Cc1ccc(-n2nc(C)c3c(=O)[nH]c(C(F)(F)F)nc32)cc1 [RU-0271306, CC1=NN(C2=C1C(=O)NC(=N2)C(F)(F)F)C1=CC=C(C)C=C1] | 40.8% | 30.6 ± 2.4% | 36.6 ± 3.4% | 37.3 ± 1.3% | 11.5 ± 4.6%
4 | CCCc1oncc1C(=O)NC1CC(=O)N(CCc2ccc(F)cc2)C1 (centres unmarked) [RU-0245406, CCCC1=C(C=NO1)C(=O)NC1CN(CCC2=CC=C(F)C=C2)C(=O)C1] | 172% | 126 ± 7.5% | 163 ± 6.6% | 87.7 ± 9% | 114 ± 25.7%
5 | CC(C)(C)n1cc(C#N)c(NS(=O)(=O)c2cccc(F)c2)n1 [RU-0277089, CC(C)(C)N1C=C(C#N)C(NS(=O)(=O)C2=CC(F)=CC=C2)=N1] | 45.4% | 51.2 ± 5.5% | 28.2 ± 0.7% | 43.2 ± 4.1% | 17.4 ± 5.4%
6 | Cc1oc(C(=O)Nc2nnc(C(F)(F)F)[nH]2)cc1S(=O)(=O)N1CCCC1 [RU-0213804, CC1=C(C=C(O1)C(=O)NC1=NN=C(N1)C(F)(F)F)S(=O)(=O)N1CCCC1] | 31.2% | 54.8 ± 1.2% | 42.3 ± 1% | 39.8 ± 7.2% | 21.3 ± 6%
7 | CCOC(=O)C(C)Sc1nc2c(cnn2-c2ccccc2)c(=O)[nH]1 (centres unmarked) [RU-0212119, CCOC(=O)C(C)SC1=NC2=C(C=NN2C2=CC=CC=C2)C(=O)N1] | 34.7% | 48.1 ± 4.6% | 40.2 ± 4.8% | 33.4 ± 2.2% | 14.5 ± 3.4%
8 | CCc1nc(C(C#N)C(=O)/C=C/c2ccc(NC(C)=O)cc2)sc1C (centres unmarked) [RU-0204780, CCC1=C(C)SC(=N1)C(C#N)C(=O)\C=C\C1=CC=C(NC(C)=O)C=C1] | 158% | 112 ± 8.5% | 140 ± 12.3% | 127 ± 5.5% | 206 ± 16%
9 | CCCC(C)c1nnc(NC(=O)c2nnc3nc(C)cc(C)n23)s1 (centres unmarked) [RU-0225311, CCCC(C)C1=NN=C(NC(=O)C2=NN=C3N=C(C)C=C(C)N23)S1] | 155% | 116 ± 6.7% | 195 ± 6.5% | 110 ± 9.7% | 137 ± 16.9%
10 | Cc1ccccc1OCC(=O)NCc1ccc(C)n1C [RU-0272839, CN1C(C)=CC=C1CNC(=O)COC1=C(C)C=CC=C1] | 215% | 161 ± 13.6% | 204 ± 5.5% | 93 ± 7.6% | 104 ± 5.9%
11 | Cc1sc(NS(=O)(=O)c2ccc(F)c(F)c2)c(C(N)=O)c1C [RU-0205217, CC1=C(C)C(C(N)=O)=C(NS(=O)(=O)C2=CC(F)=C(F)C=C2)S1] | 163% | 128 ± 4.7% | 217 ± 16.5% | 305 ± 31.1% | 741 ± 74%
12 | CCNC(=O)CSc1ccc2c3c(cccc13)C(=O)c1ccccc1-2 [RU-0209034, CCNC(=O)CSC1=C2C=CC=C3C(=O)C4=C(C=CC=C4)C(C=C1)=C23] | 182% | 128 ± 15.3% | 199 ± 7.5% | 183 ± 12.7% | 401 ± 7.5%
13 | CC(NC(=O)c1cc(Cl)ccc1NS(C)(=O)=O)c1ccc2c(c1)OCO2 (centres unmarked) [RU-0202213, CC(NC(=O)C1=C(NS(C)(=O)=O)C=CC(Cl)=C1)C1=CC2=C(OCO2)C=C1] | 195% | 152 ± 9.2% | 181 ± 5.7% | 89.3 ± 18.6% | 119 ± 13.2%
14 | Cc1nc2nc(-c3cccs3)nn2c(O)c1C1CCS(=O)(=O)C1 (centres unmarked) [RU-0194400, CC1=NC2=NC(=NN2C(O)=C1C1CCS(=O)(=O)C1)C1=CC=CS1] | 7.1% | 9.1 ± 3.9% | 15 ± 5.3% | -2.1 ± 2.6% | 2.5 ± 7%
15 | CC(C)Cc1cc(C(=O)N2CCOC(CCCc3ccccc3)C2)[nH]n1 (centres unmarked) [RU-0230474, CC(C)CC1=NNC(=C1)C(=O)N1CCOC(CCCC2=CC=CC=C2)C1] | 198% | 118 ± 12.7% | 229 ± 26.9% | 98.4 ± 7.5% | 172 ± 14.2%
16 | O=C(Cc1ccc2c(c1)CCC2)NCc1ccccc1F [RU-0268882, FC1=C(CNC(=O)CC2=CC3=C(CCC3)C=C2)C=CC=C1] | 175% | 130 ± 7% | 176 ± 16.5% | 103 ± 10.5% | 105 ± 20.7%
17 | O=C(O)c1cc(-c2ccc(N3CCOCC3)cc2)nn1-c1ccc(F)cc1 [RU-0206470, OC(=O)C1=CC(=NN1C1=CC=C(F)C=C1)C1=CC=C(C=C1)N1CCOCC1] | 157% | 111 ± 10.3% | 165 ± 15.9% | 104 ± 4.5% | 158 ± 23.6%
18 | CC(SCc1cc(=O)n2nc(N)[nH]c2n1)c1ccccc1Cl (centres unmarked) [RU-0182827, CC(SCC1=CC(=O)N2N=C(N)NC2=N1)C1=C(Cl)C=CC=C1] | 11.2% | 13.3 ± 4.2% | 20 ± 4.4% | 6.6 ± 1.1% | 9.7 ± 3.1%
19 | CCOC(=O)N1C/C(=C/c2cccc(O)c2)C(=O)/C(=C/c2cccc(O)c2)C1 [RU-0202273, CCOC(=O)N1C\C(=C\C2=CC(O)=CC=C2)C(=O)\C(C1)=C\C1=CC(O)=CC=C1] | 154% | 113 ± 3.2% | 117 ± 11% | 84.5 ± 18.2% | 158 ± 19.3%
20 | O=c1[nH]c(SCC2OCCc3ccccc32)nc2[nH]ncc12 (centres unmarked) [RU-0271878, O=C1NC(SCC2OCCC3=C2C=CC=C3)=NC2=C1C=NN2] | 43.3% | 63.4 ± 5.5% | 24.3 ± 3.8% | 57.7 ± 7% | 24.9 ± 3.6%
21 | CCc1nnc(NC(=O)c2sc(CC(C)C)nc2C)s1 [RU-0274734, CCC1=NN=C(NC(=O)C2=C(C)N=C(CC(C)C)S2)S1] | 170% | 150.7 ± 1.2% | 178 ± 7.2% | 97.2 ± 4.2% | 102 ± 3.9%
22 | Cc1ccc(C(C)NC(=O)Nc2ccc(C#N)c(Cl)c2)o1 (centres unmarked) [RU-0272807, CC(NC(=O)NC1=CC(Cl)=C(C=C1)C#N)C1=CC=C(C)O1] | 160% | 113 ± 12.8% | 133 ± 5.6% | 90.5 ± 6.1% | 128 ± 12%
23 | CC(C)c1cc(C2CCN(C(=O)c3nc(C(C)C)cs3)CC2)[nH]n1 [RU-0259583, CC(C)C1=CSC(=N1)C(=O)N1CCC(CC1)C1=CC(=NN1)C(C)C] | 156% | 103 ± 2.6% | 130 ± 8.6% | 81.6 ± 6.6% | 99.6 ± 21.4%
24 | Clc1cccc2ccc(CN3CCn4cncc4C3)nc12 [RU-0247165, ClC1=C2N=C(CN3CCN4C=NC=C4C3)C=CC2=CC=C1] | 219% | 132 ± 7.5% | 317 ± 6.7% | 226 ± 14.7% | 688.7 ± 3.5%
25 | COCCOc1ccc(NS(=O)(=O)c2cn(C)c(Cl)n2)cn1 [RU-0203727, COCCOC1=NC=C(NS(=O)(=O)C2=CN(C)C(Cl)=N2)C=C1] | 277% | 168 ± 16.8% | 309 ± 6.8% | 330 ± 19.1% | 996 ± 23.7%
